Holding throughout (format): in vivo
The subject of data set [1] is Cabbage Looper (Trichoplusia ni, TRIPNI). As to the kind of experiment: Bioassays on Cabbage Looper (CL), 128-well diet tray assay. The note with it: Trichoplusia ni. In a few lines:
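Activity is mean percent mortality over eight wells of second-instar larvae exposed to diet treated at 50 μg/cm^2 for 5–7 days at 25° C.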

Data set [2] relates to Yellow Fever Mosquito (Aedes aegypti, AEDSAE). As to conditions: for YFM rating: Table ABC / ABC-DP rating. In a few lines:
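Rating-scale grades reflect larval mortality scored per well after 3 days at room temperature under non-evaporative lids. Larvae (~1 day old, hatched overnight in liver-powder water) were added to six daughter plates per compound, prepared from a 4000 ppm DMSO stock diluted in 90:10 water/acetone.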

In data set [3] the test system is Beet Armyworm (Spodoptera exigua, LAPHEG). Kind of data set: Bioassays on Beet Armyworm (BAW), 128-well diet tray assay. As to conditions: Spodoptera exigua. In a few lines:
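Eight diet wells per compound were treated at 50 μg/cm^2 (acetone-water 90:10), dried, then infested with 1–5 second-instar larvae each. After five to seven days at 25 °C under 14:10 photoperiod, mortality was scored and averaged across wells.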

The mark [4] stands for this setting: Cabbage Looper, Table ABC / ABC-DP rating, read-out: CL rating.
Setting [5] is: Beet Armyworm, Table ABC / ABC-DP rating, read-out: BAW rating.
[6] abbreviates: Cabbage Looper, rating class, read-out: CL.
Where [7] appears, read: Yellow Fever Mosquito, rating class.
[8] abbreviates: Beet Armyworm, rating class, read-out: BAW.
Where [9] appears, read: Table ABC: Biological Results, species CL, read-out: CL.
[10] abbreviates: Table ABC: Biological Results, species YFM.
Where [11] appears, read: Table ABC: Biological Results, species BAW, read-out: BAW.

Read-outs that look alike come from different tables or passages of the source.

In the case of `CCOC(C)C(=O)N(CC)c1c(F)ccc(NC(=O)c2cc(NC(=O)[C@H]3[C@H](c4ccc(F)c(C(F)(F)F)c4)C3(Cl)Cl)ccc2Cl)c1F` (stereo partly drawn) [F1827, 2-Chloro-5-((1R,3R)-2,2-dichloro-3-(4-fluoro-3-(trifluoromethyl)phenyl)cyclopropane-1-carboxamido)-N-(3-(2-ethoxy-N-ethylpropanamido)-2,4-difluorophenyl)benzamide], the pest or weed control at 50 µg/cm2 in data set [1] (setting [4]) and in data set [3] (setting [5]) was 50 to 100% in each case. Further, in data set [2] (Yellow Fever Mosquito), the YFM rating result is on record as “A (80–100)”.
Take `O=C(NCCCCl)c1cc(NC(=O)[C@H]2[C@H](c3ccc(F)c(Cl)c3)C2(Cl)Cl)cc(F)c1Cl` (relative stereo) [F2036, trans-2-Chloro-N-(3-chloropropyl)-5-(2,2-dichloro-3-(3-chloro-4-fluorophenyl)cyclopropane-1-carboxamido)-3-fluorobenzamide]: the pest or weed control at 50 µg/cm2 in data set [1] (setting [4]) and in data set [3] (setting [5]) was 50 to 100% in each case. In addition, the YFM rating entry in data set [2] (Yellow Fever Mosquito) is given as “A (80–100)”.
For the compound `CC(F)(F)CCC(=O)Nc1c(F)ccc(NC(=O)c2cc(NC(=O)[C@H]3[C@H](c4ccc(F)c(C(F)(F)F)c4)C3(Cl)Cl)ccc2Cl)c1F` [F1843, 2-Chloro-5-((1R,3R)-2,2-dichloro-3-(4-fluoro-3-(trifluoromethyl)phenyl)cyclopropane-1-carboxamido)-N-(3-(4,4-difluoropentanamido)-2,4-difluorophenyl)benzamide], the pest or weed control at 50 µg/cm2 in data set [1] (setting [4]) and in data set [3] (setting [5]) was 50 to 100% in each case. The YFM rating entry in data set [2] (Yellow Fever Mosquito) is recorded as “A (80–100)”.
Consider `O=C(Nc1c(F)ccc(NC(=O)C(F)(F)F)c1F)c1cc(NC(=O)[C@H]2[C@H](c3ccc(F)c(C(F)(F)F)c3)C2(Cl)Cl)ccc1F` [F1560, 5-((1R,3R)-2,2-Dichloro-3-(4-fluoro-3-(trifluoromethyl)phenyl)cyclopropane-1-carboxamido)-N-(2,6-difluoro-3-(2,2,2-trifluoroacetamido)phenyl)-2-fluorobenzamide], for which the pest or weed control at 50 µg/cm2 in data set [1] (setting [6]) and in data set [3] (setting [8]) was 50 to 100% throughout. Also, in data set [2] (setting [7]), the YFM entry is reported as “A (80–100)”.
For the compound `O=C(Nc1ccc(F)cc1)c1cc(NC(=O)[C@H]2[C@H](c3ccc(F)c(C(F)(F)F)c3)C2(Cl)Cl)c(F)cc1Cl` [F1725, 2-Chloro-5-((1R,3R)-2,2-dichloro-3-(4-fluoro-3-(trifluoromethyl)phenyl)cyclopropane-1-carboxamido)-4-fluoro-N-(4-fluorophenyl)benzamide], the pest or weed control at 50 µg/cm2 in data set [1] (setting [6]) and in data set [3] (setting [8]) was 50 to 100% throughout. Also, the YFM result in data set [2] (setting [7]) is listed as “A (80–100)”.
Take `O=C(Nc1ccc(F)c(NC(=O)C2CCCO2)c1F)c1cc(NC(=O)[C@H]2[C@H](c3ccc(Cl)c(C(F)(F)F)c3)C2(Cl)Cl)ccc1Cl` (stereo partly drawn) [F1661, N-(3-(2-Chloro-5-((1R,3R)-2,2-dichloro-3-(4-chloro-3-(trifluoromethyl)phenyl)cyclopropane-1-carboxamido)benzamido)-2,6-difluorophenyl)tetrahydrofuran-2-carboxamide]: the pest or weed control at 50 µg/cm2 in data set [1] (setting [6]) and in data set [3] (setting [8]) was 50 to 100% throughout. Also, the YFM result in data set [2] (setting [7]) is “A (80–100)”.
In the case of `Cc1cc(F)ccc1NNC(=O)c1cc(NC(=O)[C@H]2[C@H](c3cc(Cl)cc(Cl)c3)C2(Cl)Cl)ccc1Cl` (relative stereo) [F2562, trans-2,2-Dichloro-N-(4-chloro-3-(2-(4-fluoro-2-methylphenyl)hydrazine-1-carbonyl)phenyl)-3-(3,5-dichlorophenyl)cyclopropane-1-carboxamide], the mortality (commonly the share of the test organisms that died) at 50 µg/cm2 was in the range of 50 to 100% in data set [1] (168 h, second instar larvae, 50 μg/cm^2 of test molecule on artificial diet, 25° C., five to seven days, average of eight wells, read-out: CL % Control (or Mortality) rating) and 50 to 100% in data set [3] (168 h, second instar larvae, 50 μg/cm^2 of test molecule on artificial diet, 25° C., five to seven days, average of eight wells, read-out: BAW % Control (or Mortality) rating). For the same compound, the pest or weed control at 50 µg/cm2 in data set [1] (setting [4]) and in data set [3] (setting [5]) was 50 to 100% in each case. The YFM rating entry in data set [2] (Yellow Fever Mosquito) is on record as “A (80–100)”. In addition, the “YFM % Control (or Mortality) rating” value in data set [2] (about 1 day-old larvae, 4000 ppm master solution diluted with 90:10 water/acetone, 15 μL per well plus 220 μL larval mixture, 3 days, mortality) is “A (80–100)”.
Regarding `CC(CC(=O)Nc1c(F)ccc(NC(=O)c2cc(NC(=O)[C@H]3[C@H](c4ccc(F)c(C(F)(F)F)c4)C3(Cl)Cl)ccc2Cl)c1F)C(F)(F)F` (stereo partly drawn) [F1760, 2-Chloro-5-((1R,3R)-2,2-dichloro-3-(4-fluoro-3-(trifluoromethyl)phenyl)cyclopropane-1-carboxamido)-N-(2,4-difluoro-3-(4,4,4-trifluoro-3-methylbutanamido)phenyl)benzamide], the pest or weed control at 50 µg/cm2 in data set [1] (setting [6]) and in data set [3] (setting [8]) was 50 to 100% each time. The YFM entry in data set [2] (setting [7]) was “A (80–100)”.
Regarding `O=C(CCC(F)(F)F)Nc1c(F)ccc(NC(=O)c2cc(NC(=O)[C@H]3[C@H](c4ccc(Cl)c(Cl)c4)C3(Cl)Cl)ccc2Cl)c1F` [F1847, 2-Chloro-5-((1R,3R)-2,2-dichloro-3-(3,4-dichlorophenyl)cyclopropane-1-carboxamido)-N-(2,4-difluoro-3-(4,4,4-trifluorobutanamido)phenyl)benzamide], the pest or weed control at 50 µg/cm2 in data set [1] (setting [4]) and in data set [3] (setting [5]) was 50 to 100% in each case. In data set [2] (Yellow Fever Mosquito), the YFM rating entry is reported as “A (80–100)”.
On to `O=C(Nc1ccc(F)cc1F)c1cc(NC(=O)C2C(c3cc(Cl)cc(S(F)(F)(F)(F)F)c3)C2(Cl)Cl)ccc1Cl` (stereo not drawn) [F1233, cis-2-Chloro-5-(2,2-dichloro-3-(3-chloro-5-(pentafluoro-λ^6-sulfanyl)phenyl)cyclopropane-1-carboxamido)-I-(2,4-difluorophenyl)benzamide], for which the pest or weed control at 50 µg/cm2 in data set [1] (setting [9]) and in data set [3] (setting [11]) was 50 to 100% throughout. Moreover, the YFM entry in data set [2] (setting [10]) is listed as “A (80–100)”.
For the compound `CCNC(=O)c1c(Cl)ccc(NC(=O)[C@H]2[C@H](c3ccc(F)c(Cl)c3)C2(Cl)Cl)c1Cl` (relative stereo) [F2019, trans-2,6-Dichloro-3-(2,2-dichloro-3-(3-chloro-4-fluorophenyl)cyclopropane-1-carboxamido)-N-ethylbenzamide], the pest or weed control at 50 µg/cm2 in data set [1] (setting [4]) and in data set [3] (setting [5]) was 50 to 100% in each case. Moreover, the YFM rating entry in data set [2] (Yellow Fever Mosquito) is on record as “A (80–100)”.
`N#CC1(C(=O)Nc2c(F)ccc(NC(=O)c3cc(NC(=O)[C@H]4[C@H](c5ccc(F)c(C(F)(F)F)c5)C4(Cl)Cl)ccc3Cl)c2F)CC1` [F1263, 2-Chloro-N-(3-(1-cyanocyclopropane-1-carboxamido)-2,4-difluorophenyl)-5-((1R,3R)-2,2-dichloro-3-(4-fluoro-3-(trifluoromethyl)phenyl)cyclopropane-1-carboxamido)benzamide]: the pest or weed control at 50 µg/cm2 in data set [1] (setting [9]) and in data set [3] (setting [11]) was 50 to 100% throughout. The YFM entry in data set [2] (setting [10]) is “A (80–100)”.
Take `N#CCC(=O)N(CCF)c1c(F)ccc(NC(=O)c2cc(NC(=O)[C@H]3[C@H](c4ccc(F)c(C(F)(F)F)c4)C3(Cl)Cl)ccc2Cl)c1F` [F1823, 2-Chloro-N-(3-(2-cyano-N-(2-fluoroethyl)acetamido)-2,4-difluorophenyl)-5-((1R,3R)-2,2-dichloro-3-(4-fluoro-3-(trifluoromethyl)phenyl)cyclopropane-1-carboxamido)benzamide]: the pest or weed control at 50 µg/cm2 in data set [1] (setting [4]) and in data set [3] (setting [5]) was 50 to 100% each time. Besides, the YFM rating entry in data set [2] (Yellow Fever Mosquito) was “A (80–100)”.
Turning to `O=C(Nc1c(F)ccc(NC(=O)C(F)(F)F)c1F)c1cc(NC(=O)[C@H]2[C@H](c3cc(Cl)c(Cl)c(Cl)c3)C2(Cl)Cl)ccc1F` [F1554, 5-((1R,3R)-2,2-Dichloro-3-(3,4,5-trichlorophenyl)cyclopropane-1-carboxamido)-N-(2,6-difluoro-3-(2,2,2-trifluoroacetamido)phenyl)-2-fluorobenzamide], the pest or weed control at 50 µg/cm2 in data set [1] (setting [6]) and in data set [3] (setting [8]) was 50 to 100% throughout. In addition, the YFM result in data set [2] (setting [7]) is “A (80–100)”.
For the compound `O=C(Nc1ccc(F)c(NC(=O)C(F)(F)Cl)c1F)c1cc(NC(=O)[C@H]2[C@H](c3ccc(Cl)c(C(F)(F)F)c3)C2(Cl)Cl)ccc1Cl` [F1719, 2-Chloro-N-(3-(2-chloro-2,2-difluoroacetamido)-2,4-difluorophenyl)-5-((1R,3R)-2,2-dichloro-3-(4-chloro-3-(trifluoromethyl)phenyl)cyclopropane-1-carboxamido)benzamide], the pest or weed control at 50 µg/cm2 in data set [1] (setting [6]) and in data set [3] (setting [8]) was 50 to 100% each time. In addition, in data set [2] (setting [7]), the YFM entry is listed as “A (80–100)”.
`CN(C(=O)c1cc(NC(=O)[C@H]2[C@H](c3ccc(F)c(C(F)(F)F)c3)C2(Cl)Cl)ccc1Cl)c1ccc(F)c(NC(=O)C2CCCO2)c1F` (stereo partly drawn) [F1798, N-(3-(2-Chloro-5-((1R,3R)-2,2-Dichloro-3-(4-fluoro-3-(trifluoromethyl)phenyl)cyclopropane-1-carboxamido)-N-methylbenzamido)-2,6-difluorophenyl)tetrahydrofuran-2-carboxamide]: the pest or weed control at 50 µg/cm2 in data set [1] (setting [4]) and in data set [3] (setting [5]) was 50 to 100% throughout. Further, the YFM rating entry in data set [2] (Yellow Fever Mosquito) is “B (More than 0 – Less than 80)”.

For the origin of these results see patent publication US20250228239A1, “MOLECULES HAVING PESTICIDAL UTILITY, AND INTERMEDIATES, COMPOSITIONS, AND PROCESSES, RELATED THERETO” (priority 2024, published 2025).
